Assays:
[1] = system: PCTP (phosphatidylcholine transfer protein) gene expression; assay: Expression of PCTP in Fuzzy rat epidermal split after 8 days of topical treatment, Affymetrix transcriptome analysis; assay type: in vivo; details: female Fuzzy rats, topical 1% once a day for 8 days, Affymetrix 1387058_at, control condition 143
Protocol: Fuzzy Rat Epidermal Split Expression Data
The studies are carried out in female Fuzzy rats (Hsd: Fuzzy-fz) ten weeks old at the beginning of the study. The animals are treated at a dose of 1% (PPARg agonist rosiglitazone in solution in acetone) once a day for 8 days. Two hours after the final treatment, the animals are sacrificed by euthanasia and the skin on the back is removed. After incubation in dispase, the epidermis carrying the sebaceous glands is detached from the dermis (epidermal split). After grinding of the samples, the mRNA is prepared using Qiagen columns, in accordance with the supplier's instructions. The material thus prepared is subjected to large-scale transcriptome analysis on an Affymetrix platform. The data are subsequently standardized and, after statistical analysis, the results produced are expressed in arbitrary expression units (see below) accompanied, for each piece of data, by a statistical value for presence of the transcript (presence=1; absence=0).

[2] = system: PCTP (phosphatidylcholine transfer protein) gene expression; assay: Expression of PCTP in rat sebaceous gland (epidermal split) after topical PPARgamma agonist, real-time PCR kinetics; assay type: in vivo; details: for PCTP relative induction: topical 1% in acetone, female Fuzzy rats, standardized to 18S, versus carrier group; for PCTP expression in vivo at the level of the sebaceous glands following topical treatment: topical treatment with PPARγ ligand at 1%
Text: Number per batch: 40 (8 animals per group)
Treatment: Route of administration: topical
Compound/batch: PPARgamma agonists: • A: 5-{4-[2-(methylpyridin-2-ylamino)ethoxy]-benzyl}thiazolidine-2,4-dione • B: (2-methoxyethoxymethoxy)naphthalene-2-carboxylic acid [4′-(2,4-dioxothazolidin-5-ylmethyl)biphenyl-3-ylmethyl]methylamide or rosiglitazone • C: (S)-2-ethoxy-3-{4-[6-(3-heptyl-1-methyl-ureido)pyridin-2-yl]phenyl}propionic acid
Method of evaluation: The animals are weighed at the beginning and at the end of the study. Skin biopsies are taken (6 samples of skin excised per rat) in order to analyse the expression of the genes (RNA extraction, reverse transcriptase and real-time PCR). The samples are stored overnight at 4° C. before incubation in 1M sodium bromide (NaBr) for 2 hours at 37° C. After incubation, the samples are separated into epidermis or dermis. The epidermal samples are stored at […]. Under these conditions, the sebaceous glands are in the epidermal split. PCRs are carried out, beginning with the cDNAs originating from the epidermal splits controlling sebaceous glands from control rats or rats treated with a PPARγ agonist; the mRNA is extracted using a column and quantified. The quality of the mRNAs is measured and is represented by the 18S/28S ratio. The results are standardized with respect to 18S, expressed as relative induction versus untreated animals (carrier group). The statistical analysis is obtained using internal software based on a modified Monte Carlo statistical analysis.

Row | Compound | Expression after treatment with 1% rosiglitazone [1] | PCTP relative induction ([2]; 0 hours) | PCTP relative induction ([2]; 8 hours) | PCTP relative induction ([2]; 24 hours) | PCTP relative induction ([2]; 48 hours) | PCTP relative induction ([2]; 96 hours) | PCTP expression in vivo at the level of the sebaceous glands following topical treatment [2]
1 | (2-methoxyethoxymethoxy)naphthalene-2-carboxylic acid [4′-(2,4-dioxothazolidin-5-ylmethyl)biphenyl-3-ylmethyl]methylamide | 445 arbitrary expression units | 1 | 2.57 | 2.79 | 3.37 | 1.15 | modulated
2 | CCCCCCCNC(=O)N(C)c1cccc(-c2ccc(C[C@H](OCC)C(=O)O)cc2)n1 [C, (S)-2-ethoxy-3-{4-[6-(3-heptyl-1-methyl-ureido)pyridin-2-yl]phenyl}propionic acid] | – | 1 | 1.54 | 3.69 | 3.11 | 1.38 | modulated
3 | CN(CCOc1ccc(CC2SC(=O)NC2=O)cc1)c1ccccn1 (stereo not shown) [A, 5-{4-[2-(methylpyridin-2-ylamino)ethoxy]-benzyl}thiazolidine-2,4-dione] | – | 1 | 7.06 | 8.54 | 6.70 | 3.38 | modulated
